Laboratory results taken from ChEMBL document CHEMBL3044611, “Synthesis of novel Hantzsch dihydropyridines and Biginelli dihydropyrimidines of biological interest: a 3D-QSAR study on their cytotoxicity” (Med Chem Res, 2010).
Values after ≈ are worked out from the molar mass of the structure shown. Active and inactive are the calls of the source. No cut-off for these calls is given here.

Assays:
Bacillus subtilis = test: Antibacterial activity against Bacillus subtilis at 50 ug/well after 24 hr by agar well diffusion method; type: functional, organism-based
Staphylococcus aureus = test: Antibacterial activity against Staphylococcus aureus at 50 ug/well after 24 hr by agar well diffusion method; type: functional, organism-based
[1] = (§1) Cytotoxicity against Chlorocebus aethiops (African green monkey) Vero cells assessed as cell viability after 3 days by SRB assay; type: cell-based; conditions: chlorocebus sabaeus, Vero cells
Vero = test: as §1; type: cell-based; conditions: chlorocebus sabaeus, vero, 72 h

Row | Structure (SMILES) | Activity (Bacillus subtilis) | Activity (Staphylococcus aureus) | CC50 at 72 h [1] | pCC50 (Vero)
1 | CC1=C(C(=O)Nc2ccc(Cl)cc2)C(c2ccco2)C(C(=O)Nc2ccc(Cl)cc2)=C(C)N1 | inactive | inactive | 24 µg/mL (≈ 49.8 µM) | 1.302
2 | COc1ccc(C2C(C(=O)Nc3ccc(Cl)cc3)=C(C)NC(C)=C2C(=O)Nc2ccc(Cl)cc2)cc1 | inactive | inactive | 20 µg/mL (≈ 38.3 µM) | 1.42
3 | COc1ccc(NC(=O)C2=C(C)NC(=O)NC2c2cccc(Cl)c2)cc1 (stereo not given) | inactive | inactive | 254 µg/mL (≈ 683 µM) | 0.164
4 | COc1ccc(NC(=O)C2=C(C)NC(=S)NC2c2ccc(N(C)C)cc2)cc1 (stereo not given) | inactive | inactive | 500 µg/mL (≈ 1260 µM) | -0.101
5 | COc1ccc(NC(=O)C2=C(C)NC(=O)NC2c2ccccc2O)cc1 (stereo not given) | inactive | inactive | 160 µg/mL (≈ 453 µM) | 0.343
6 | CC1=C(C(=O)Nc2ccc(Cl)cc2)C(c2ccc(N(C)C)cc2)C(C(=O)Nc2ccc(Cl)cc2)=C(C)N1 | inactive | inactive | 155 µg/mL (≈ 289 µM) | 0.538
7 | CC1=C(C(=O)Nc2ccc(Cl)cc2)C(c2ccccc2)C(C(=O)Nc2ccc(Cl)cc2)=C(C)N1 | inactive | inactive | 15 µg/mL (≈ 30.5 µM) | 1.516
8 | COc1ccc(NC(=O)C2=C(C)NC(=S)NC2c2cccc(Cl)c2)cc1 (stereo not given) | inactive | inactive | 270 µg/mL (≈ 696 µM) | 0.157
9 | CC1=C(C(=O)Nc2ccc(Cl)cc2)C(c2ccccc2O)C(C(=O)Nc2ccc(Cl)cc2)=C(C)N1 | inactive | inactive | 62 µg/mL (≈ 122 µM) | 0.913
10 | COc1ccc(NC(=O)C2=C(C)NC(=O)NC2c2ccc(O)c(OC)c2)cc1 (stereo not given) | inactive | inactive | 8 µg/mL (≈ 20.9 µM) | 1.68
11 | CC1=C(C(=O)Nc2ccc(Cl)cc2)CC(C(=O)Nc2ccc(Cl)cc2)=C(C)N1 | inactive | inactive | 40 µg/mL (≈ 96.1 µM) | 1.017
12 | COc1ccc(NC(=O)C2=C(C)NC(=S)NC2c2ccc(OC)cc2)cc1 (stereo not given) | inactive | inactive | 150 µg/mL (≈ 391 µM) | 0.408
13 | COc1ccc(NC(=O)C2=C(C)NC(=S)NC2c2ccccc2)cc1 (stereo not given) | inactive | inactive | 15 µg/mL (≈ 42.4 µM) | 1.371
14 | COc1ccc(NC(=O)C2=C(C)NC(=S)NC2c2cccc([N+](=O)[O-])c2)cc1 (stereo not given) | inactive | inactive | 80 µg/mL (≈ 201 µM) | 0.697
15 | CC1=C(C(=O)Nc2ccc(Cl)cc2)C(c2ccncc2)C(C(=O)Nc2ccc(Cl)cc2)=C(C)N1 | inactive | inactive | 78 µg/mL (≈ 158 µM) | 0.8
16 | COc1ccc(NC(=O)C2=C(C)NC(=S)NC2c2ccco2)cc1 (stereo not given) | inactive | inactive | 230 µg/mL (≈ 670 µM) | 0.173
17 | COc1ccc(NC(=O)C2=C(C)NC(=S)NC2c2ccccc2O)cc1 (stereo not given) | inactive | inactive | 246 µg/mL (≈ 666 µM) | 0.176
18 | COc1ccc(NC(=O)C2=C(C)NC(=O)NC2c2cccc([N+](=O)[O-])c2)cc1 (stereo not given) | inactive | inactive | 64 µg/mL (≈ 167 µM) | 0.776
19 | CC1=C(C(=O)Nc2ccc(Cl)cc2)C(c2cccc(Cl)c2)C(C(=O)Nc2ccc(Cl)cc2)=C(C)N1 | inactive | inactive | 12 µg/mL (≈ 22.8 µM) | 1.642
20 | COc1cc(C2C(C(=O)Nc3ccc(Cl)cc3)=C(C)NC(C)=C2C(=O)Nc2ccc(Cl)cc2)ccc1O | inactive | inactive | 250 µg/mL (≈ 464 µM) | 0.333
21 | COc1ccc(NC(=O)C2=C(C)NC(=O)NC2c2ccc(OC)cc2)cc1 (stereo not given) | inactive | inactive | 158 µg/mL (≈ 430 µM) | 0.367
22 | COc1ccc(NC(=O)C2=C(C)N=C(S)NC2c2ccc(O)c(OC)c2)cc1 (stereo not given) | inactive | inactive | 8 µg/mL (≈ 20 µM) | 1.698
23 | COc1ccc(NC(=O)C2=C(C)NC(=O)NC2c2ccncc2)cc1 (stereo not given) | inactive | inactive | 10 µg/mL (≈ 29.6 µM) | 1.529
24 | COc1ccc(NC(=O)C2=C(C)NC(=O)NC2c2ccccc2)cc1 (stereo not given) | inactive | inactive | 225 µg/mL (≈ 667 µM) | 0.176
25 | COc1ccc(NC(=O)C2=C(C)NC(=O)NC2)cc1 | inactive | inactive | 200 µg/mL (≈ 765 µM) | 0.116
26 | COc1ccc(NC(=O)C2=C(C)NC(=O)NC2/C=C/c2ccccc2)cc1 (stereo not given) | inactive | inactive | 15 µg/mL (≈ 41.3 µM) | 1.383
27 | CC1=C(C(=O)Nc2ccc(Cl)cc2)C(/C=C/c2ccccc2)C(C(=O)Nc2ccc(Cl)cc2)=C(C)N1 | inactive | inactive | 21 µg/mL (≈ 40.5 µM) | 1.392
28 | COc1ccc(NC(=O)C2=C(C)NC(=O)NC2c2ccco2)cc1 (stereo not given) | inactive | inactive | 210 µg/mL (≈ 642 µM) | 0.192
29 | CC1=C(C(=O)Nc2ccc(Cl)cc2)C(c2cccc([N+](=O)[O-])c2)C(C(=O)Nc2ccc(Cl)cc2)=C(C)N1 | inactive | inactive | 26 µg/mL (≈ 48.4 µM) | 1.315
30 | COc1ccc(NC(=O)C2=C(C)NC(=O)NC2c2ccc(N(C)C)cc2)cc1 (stereo not given) | inactive | inactive | 236 µg/mL (≈ 620 µM) | 0.207
